Assays:
[1] = molecular target: T1, ALPK1 (Homo sapiens, UniProt Q96QP1); assay: In vitro kinase assay of ALPK1-dependent TIFA phosphorylation; assay type: biochemical
Procedure: We performed an in vitro kinase assay with H1b-ADP and H1b-ADP-6L along with ALPK1 protein (2 nM), and TIFA protein (1.6 uM) in kinase buffer containing 50 uM ATP. TIFA phosphorylation was analyzed by denaturing gel electrophoresis followed by western blotting using an anti-phosphothreonine antibody. H1b-ADP or H1b-ADP-6L was added at 2 nM, 0.4 nM, 80 pM, 16 pM, and 3 pM.
To test this, we performed an in vitro kinase reaction for ALPK1-dependent TIFA phosphorylation in the presence of either HBP or HIdA purified from E. coli containing inactivated HIdE, or in the presence of HBP and HIdA purified from the same HIdE wild-type E. coli used in the previous experiments. Phosphorylated TIFA (three concentrations, 1%, 0.2% and […]) was detected as described above by denaturing gel electrophoresis followed by Western analysis.

[2] = molecular target: T1, ALPK1; assay: Thermal shift assay (SYPRO Orange) for binding to ALPK1; details: ALPK1 7 uM; 1, 5, 25, 125 uM compound; H1b-ADP shift at 5, 25 and 125 uM
From the text: The thermal shift assay is widely used to determine the binding of a molecule to a protein of interest. The assay is based on the increase in thermal energy required for denaturation of a protein where another molecule is bound to the protein. SYPRO Orange is a fluorescent compound used in the detection of thermal shift. SYPRO Orange binds to hydrophobic surfaces of the protein, and water strongly quenches its fluorescence. When the protein unfolds, the exposed hydrophobic surfaces bind the dye, resulting in an increase in fluorescence. When another molecule is bound to the protein, an increase in the temperature required for unfolding of the protein is observed.
This assay system was used to determine whether or not chemically synthesized HBP, HMP-1bP, and H1b-ADP directly bind to ALPK1. […] Only H1b-ADP induced a shift of more than 1 degree, at each of the three highest concentrations tested, 5 uM, 25 uM, and 125 uM.

[3] = molecular target: T1, ALPK1; assay: Cell-free kinase assay of ALPK1-dependent phosphorylation of IκB; assay type: biochemical; details: 2 nM ALPK1, with or without ATP, 1 hour
Procedure: We next tested whether H1b-ADP-induced autophosphorylation of ALPK1 was effective to activate NFκB using phosphorylation of IκB as a marker for this activity. Phosphorylation assays were performed according to standard protocols and phosphorylated protein was detected by gel electrophoresis and Western blotting using an antibody that detects phosphorylated IκB. Briefly, assays were performed in a 20 μl volume at 25° C. in assay buffer (25 mM HEPES pH 7.5, 50 mM KCl, 0.1 mM EDTA, 0.1 mM EGTA, 2 mM DTT, 1.5 mM CaCl2, 10 mM MgCl2) containing 2 nM ALPK1 and H1b-ADP […] with or without ATP, or either ALPK1 alone or H1b-ADP alone, both in the presence of ATP. After 1 hour of incubation, the reaction was loaded to denaturing gel for protein electrophoresis and Western was performed to detect phosphorylation of 1 kB using p-IkB antibody (Abcam).

[4] = molecular target: T1, ALPK1; assay: IL8 secretion in HEK293 cells (IL8 ELISA) as indicator of ALPK1 activation; details: cells cultured with fetal bovine, human or mouse serum
Procedure: Phosphatase such as the alkaline phosphatase may be responsible for H1b-ADP hydrolysis. We pre-mixed H1b-ADP with phosphatase inhibitor sodium orthovanadate (Na3VO4) before incubation with FBS. […] We hypothesized that the accumulation of hydrolysis product AMP can inhibit phosphatase activity.
A number of H1b-ADP derivative compounds were made as described herein and tested for biological activity as agonists of ALPK1 in vitro. In these experiments, serial dilutions of the compounds were added to the tissue culture media of HEK293 cells with (FIG. 27B, FIG. 28B, FIG. 29B) or without (FIG. 26, FIG. 27A, FIG. 28A, FIG. 29A) 10% FBS, as indicated in the figures. After 4 hours, the cell supernatant was collected and analyzed for IL8 concentration using IL8 ELISA (BD) as an indicator of ALPK1 activation.

[5] = tested on: mouse bone marrow-derived macrophages; assay: Cxcl1 mRNA expression in bone marrow-derived macrophages (qPCR); assay type: cell-based; details: 0.4 nM or 2 nM H1b-ADP, 2.5 hours
Procedure: In these experiments, mouse bone marrow-derived macrophages were treated with 0.4 nM or 2 nM H1b-ADP for 2.5 hours and harvested for mRNA expression analysis of Cxcl1 by qPCR. […] Accordingly, very low doses of H1b-ADP, or an agonist thereof, may be used to enhance or potentiate an immune response in a local tissue.

[6] = tested on: CT26 cells; assay: mRNA expression in CT26 tumor tissue after intratumoral injection (qPCR); assay type: in vivo, BALB/c mice; details: H1b-ADP 2.5 μg, 250 ng, 50 ng intratumoral, 4 hours post-injection
Procedure: We next asked whether H1b-ADP caused an increase in pro-inflammatory cytokines within the tumor. Tumor cells (2×10^5 per 100 μL CT26 cells) were inoculated subcutaneously into the right flank of BALB/c mice. 2.5 μg (n=2), 250 ng (n=2), 50 ng (n=2) of H1b-ADP or control (n=2) was intratumorally injected (20 uL) at day 7 post inoculation. 4 hours post-injection, tumor issues were dissected and harvested. Total RNA was isolated (TRIzol™, ThermoFisher) and cDNA was synthesized (PrimeScript™ RT reagent Kit, Takara) and amplified (AceQ™ qPCR SYBR™ Green Master Mix, Vazyme Biotech using a QuantStudio™ 7 Flex Real-Time PCR Systems (ThermoFisher) according to manufacturers' protocols.

[7] = tested on: phosphatase activity in the serum; assay: Incubation of H1b-ADP with FBS, product analysed by LC-MS; assay type: in vitro ADME, bovine; details: increasing incubation time, LC-MS; product determined to be AMP
From the text: FBS contains 110-352 μU/ml alkaline phosphatase.

T1 sequence (Q96QP1 whole entry): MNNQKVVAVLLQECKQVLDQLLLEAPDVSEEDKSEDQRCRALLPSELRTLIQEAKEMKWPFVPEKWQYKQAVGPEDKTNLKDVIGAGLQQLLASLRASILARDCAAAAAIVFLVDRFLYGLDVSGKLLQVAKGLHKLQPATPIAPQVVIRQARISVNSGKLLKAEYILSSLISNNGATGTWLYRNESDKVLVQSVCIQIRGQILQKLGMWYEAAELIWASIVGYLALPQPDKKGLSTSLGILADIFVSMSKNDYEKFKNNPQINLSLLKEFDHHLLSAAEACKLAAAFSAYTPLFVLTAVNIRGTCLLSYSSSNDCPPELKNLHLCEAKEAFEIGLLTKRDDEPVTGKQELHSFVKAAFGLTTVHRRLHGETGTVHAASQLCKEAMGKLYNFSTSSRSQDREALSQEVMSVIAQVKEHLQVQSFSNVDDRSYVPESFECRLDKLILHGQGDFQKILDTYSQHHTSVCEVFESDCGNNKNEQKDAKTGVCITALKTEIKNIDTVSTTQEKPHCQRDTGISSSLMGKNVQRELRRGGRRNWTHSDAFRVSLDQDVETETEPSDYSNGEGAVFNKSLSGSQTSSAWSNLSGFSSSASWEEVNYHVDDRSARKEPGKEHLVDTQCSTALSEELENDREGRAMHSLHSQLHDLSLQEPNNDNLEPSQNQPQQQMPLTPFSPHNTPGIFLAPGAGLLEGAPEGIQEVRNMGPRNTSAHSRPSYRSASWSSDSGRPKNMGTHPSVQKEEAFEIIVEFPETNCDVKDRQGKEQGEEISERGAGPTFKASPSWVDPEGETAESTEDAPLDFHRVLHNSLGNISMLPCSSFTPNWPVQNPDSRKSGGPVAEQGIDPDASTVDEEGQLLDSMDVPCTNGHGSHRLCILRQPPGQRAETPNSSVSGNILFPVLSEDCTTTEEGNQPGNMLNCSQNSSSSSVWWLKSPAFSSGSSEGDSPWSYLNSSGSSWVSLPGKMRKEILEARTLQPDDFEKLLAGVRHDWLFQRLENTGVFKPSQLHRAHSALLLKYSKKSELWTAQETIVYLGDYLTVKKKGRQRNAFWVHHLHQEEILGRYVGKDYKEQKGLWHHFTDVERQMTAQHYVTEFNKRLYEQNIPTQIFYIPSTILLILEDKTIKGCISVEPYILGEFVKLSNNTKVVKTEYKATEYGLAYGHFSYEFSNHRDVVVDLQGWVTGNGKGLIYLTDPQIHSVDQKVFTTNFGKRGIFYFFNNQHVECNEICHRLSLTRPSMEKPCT

SMILES: O=P(O)(O)O[C@@H]1O[C@H]([C@H](O)CO)[C@@H](O)[C@H](O)[C@@H]1O [HMP-1bP, D-glycero-β-D-manno-heptose-1-phosphate]
- phosphorylation of the ALPK1 substrate TIFA ([1]; FIG. 7, chemically-synthesized compounds): TIFA is phosphorylated only in the presence of H1b-ADP
- thermal shift of ALPK1 [2]: Neither HBP nor HMP-1bP were able to induce a thermal shift

SMILES: Nc1ncnc2c1ncn2[C@@H]1O[C@H](COP(=O)(O)OP(=O)(O)O[C@@H]2O[C@H]([C@H](O)CO)[C@@H](O)[C@H](O)[C@@H]2O)[C@@H](O)[C@H]1O [Compound H1b-ADP, D-glycero-D-manno-heptose-1β-ADP]
- IκB phosphorylation [3]: IkB phosphorylation was detected only in the presence of both ALPK1 and H1b-ADP in the presence of ATP
- H1b-ADP's activity to activate ALPK1 in HEK293 cells (IL8 secretion) [4]: greatly declined
- Cxcl1 mRNA expression, fold change over non-treated control [5]: showed a dose-dependent response
- TIFA phosphorylation ([1]; ALPK1 2 nM, TIFA 1.6 uM, 50 uM ATP, compound 2 nM, 0.4 nM, 80 pM, 16 pM, 3 pM): phosphorylation of the ALPK1 substrate TIFA
- PD-1 and PD-L1 expression in tumor [6]: increased in H1b-ADP injected tumor
- mRNA expression of CD8, CD4, Foxp3 and T-bet in tumor [6]: increased upon H1b-ADP injection
- mRNA expression of inflammatory cytokine IL-1b, Tnfa, Ifn gamma, and IL-6, and chemokine Cxcl1 in tumor [6]: increased upon H1b-ADP injection
- H1b-ADP amount on incubation with FBS [7]: the H1b-ADP amount declined
